Columns and labels:
Assay type in all cases: cell-based, human
[1] = test system: CHK1 and CHK2 phosphorylation in LN229 MGMT+/−, MMR+/− cells; test: Western blotting of checkpoint kinase phosphorylation; conditions: 20 μM, 24 or 48 h
Method: Western Blotting. For phospho-protein analysis experiments, cells were lysed in 1× RIPA buffer (Cell Signaling Technology, #9806) supplemented with 1× Protease Inhibitor Cocktail (Roche) and 1× PhosSTOP Phosphatase Inhibitor Cocktail (Sigma). For all other western blot analyses, cells were lysed in lysis buffer (50 mM HEPES, 250 mM NaCl, 5 mM EDTA, 1% NP-40) supplemented with 1× Protease Inhibitor Cocktail (Roche). The de-ubiquitination inhibitor N-ethylmaleimide (NEM, 4 mM) was added in FANCD2 ubiquitination analysis experiments. Proteins were separated using NuPAGE 4-12% Bis-Tris or 3-8% Tris-Acetate Gels (Invitrogen) and transferred to Immobilon-P PVDF membrane (Millipore) for western blotting. Membranes were blocked with 5% milk in TBS-T for 1 h prior to primary antibody addition overnight at 4° C. […] Where shown, bands were quantified using ImageJ software.

[2] = test system: DLD1 MSH6-deficient cells; test: Short-term cell viability assay with or without O^6BG; conditions: DLD1 (MGMT+, MSH6−), with or without 10 μM O^6BG-induced MGMT depletion
From the text: (§1) FIGS. Z2A-Z2H. […] (FIG. Z2A) IC50 values derived from short-term viability assays in LN229 MGMT+/−, MMR+/− cells treated with TMZ (1a) derivatives. ^aMGMT TI (therapeutic index)=IC50 (MGMT+/MMR+) divided by IC50 (MGMT−/MMR+). ^bMMR RI (resistance index)=IC50 (MGMT−/MMR−) divided by IC50 (MGMT−/MMR+). (FIG. Z2B) Short-term viability assay curves for TMZ (1a), CCNU (14), KL-85 (4b), and KL-50 (4a) in LN229 MGMT+/−, MMR+/− cells. (FIG. Z2C) Clonogenic survival curves for TMZ (1a) in LN229 MGMT+/−, MMR+/− cells, with representative images of wells containing 1000 plated cells treated with 30 μM TMZ (1a). (FIG. Z2D) Clonogenic survival curves for KL-50 (4a) in LN229 MGMT+/−, MMR+/− cells, with representative images of wells containing 1000 plated cells treated with 30 μM KL-50 (4a). (FIG. Z2E) Short-term viability assay curves for TMZ (1a) in DLD1 MSH6-deficient cells pre-treated with 0.01% DMSO control (CTR) or 10 μM O^6BG (+O^6BG) for 1 h prior to TMZ (1a) addition to deplete MGMT. (FIG. Z2F) Short-term viability assay curves for KL-50 (4a) in DLD1 MSH6-deficient cells pre-treated with 0.01% DMSO control (CTR) or 10 μM O^6BG (+O^6BG) for 1 h prior to KL-50 (4a) addition. (FIG. Z2G) Short-term viability assay curves for TMZ (1a) in HCT116 MLH1−/− cells or HCT116 cells complemented with chromosome 3 carrying wildtype MLH1 (+Chr3) pre-treated with 0.01% DMSO control or 10 μM O^6BG (+O^6BG) for 1 h prior to TMZ (1a) addition. (FIG. Z2H) Short-term viability assay curves for KL-50 (4a) in HCT116 MLH1−/− cells or HCT116 cells complemented with chromosome 3 carrying wildtype MLH1 (+Chr3) pre-treated with 0.01% DMSO control or 10 μM O^6BG (+O^6BG) for 1 h prior to KL-50 (4a) addition. For (FIG. Z2B), (FIG. Z2C), (FIG. Z2D), (FIG. Z2E), (FIG. Z2F), (FIG. Z2G), and (FIG. Z2H), points, mean; error bars, SD; n≥3 technical replicates.
(§2) Short-term Cell Viability Assay. Cells were seeded in 96-well plates at 1000 or 2000 cells/well and allowed to adhere at 23° C. for 60 min and then incubated overnight at 37° C. Cells were treated with indicated concentrations of compounds in triplicate for 4-6 days prior to fixation with 3.7% paraformaldehyde and nuclear staining with 1 μg/mL Hoechst 33342 dye. Cells were imaged on a Cytation 3 imaging reader (BioTek) and quantified using CellProfiler software.

[3] = test system: HCT116 MLH1−/− cells and HCT116+Chr3 cells; test: as above; conditions: for cytotoxicity in HCT116 MLH1−/− cells (in words): MLH1-deficient, with or without 10 μM O^6BG; for cytotoxicity in HCT116+Chr3 cells (in words): complemented with chromosome 3 containing MLH1, with or without 10 μM O^6BG
From the text: as §1, §2

SMILES	CHK1 and CHK2 phosphorylation (in words) [1]	cytotoxicity in DLD1 cells (in words) [2]	cytotoxicity in HCT116 MLH1−/− cells (in words) [3]	cytotoxicity in HCT116+Chr3 cells (in words) [3]
NC(=O)c1ncn2c(=O)n(CCF)nnc12 [KL-50, 3-(2-fluoroethyl)-4-oxo-3H,4H-imidazo[4,3-d][1,2,3,5]tetrazine-8-carboxamide]	induced CHK1 and CHK2 phosphorylation in MGMT− cells regardless of MMR status	toxic to these cells, but only after O^6BG-induced MGMT depletion	selective tumor cell killing specifically in the setting of O^6BG-induced MGMT suppression	selective tumor cell killing specifically in the setting of O^6BG-induced MGMT suppression
Cn1nnc2c(C(N)=O)ncn2c1=O [TMZ, temozolomide, reference compound]	only induced phospho-CHK1 and —CHK2 in MGMT−/MMR+ cells	inactive	inactive	enhanced sensitivity to TMZ (1a), which was further potentiated by MGMT depletion
